Results from patent US20240010685A1, “RNA SENSORS AND USES THEREOF” (YISSUM RESEARCH DEVELOPMENT COMPANY OF THE HEBREW …, priority 2020, published 2024).
Where “and” joins values, the source holds several entries; their conditions need not be identical. Equal entries are not always repeated.

Experiments:
CCAT1 = assay: fluorescence of CCAT1 FIT-PNA with RNA; conditions: [RNA]=1.5 μM and [FIT-PNA]=1 μM
Source text: Methylating the N-7 position of Guanosine base of a PNA monomer (G+ PNA monomer) results in an improvement in the hybridization to complementary DNA whilst avoiding PNA:PNA inter- and intra-duplex formation. As enhancement of FIT-PNA fluorescence depends on the ratio between ss/ds forms (PNA/PNA:RNA), lowering the background fluorescence of ssPNA should result in greater sensitivity (i.e. increased fluorescence enhancement). In the ss form, the FIT-PNA has low background fluorescence due to […] interactions between the aromatic BisQ and adjacent aromatic PNA monomers (especially purines: G and A). As BisQ has a delocalized positive charge (from nitrogen to nitrogen), the introduction of an adjacent positive charge on G or A causes electrostatic repulsion between BisQ and G+/A+ resulting in reduced background fluorescence. […] Data points to both a decrease in signal background of ssFIT-PNA and to an increase in fluorescence in duplex form (FIT-PNA:RNA) in comparison to non-modified CCAT1 FIT-PNA (FIG. 7). […]
In some embodiments, the modified or charged bases, G^+ and A^+, may be provided with a cp group positioned in their vicinity or as a cpG^+or cpA^+ monomer, in similarity to cpBisQ (Scheme 4). […] Data points to an increase in fluorescence in duplex form (FIT-PNA:RNA) in comparison to non-modified CCAT1 FIT-PNA as well as G+ and cpG modified CCAT1 FIT-PNA sequences (FIG. 8). […]

[1] = test system: BRAF V600E point mutation; assay: fluorescence spectra of BRAF FIT-PNA with fully matched RNA (mutant) and mis-match RNA (WT); conditions: 1 μM PNA
Source text: The data points to the added value of introducing the PEG8 linker. Clearly, the addition of the PEG8 linker improves the signal for fully matched RNA without losing the discrimination for the SNP. The addition of cpPNAs on both sides of BisQ (Table 2) results in an increased fluorescence in signal with mutant RNA (FIG. 6), however, the signal for WT RNA (with mismatch) also increases. This leads to some loss of discrimination for this SNP.
FIGS. 5A-B depict the added value of the PEG8 linker. Fluorescence spectra of CLIP6 FIT-PNA (5A, right) and, CLIP6-PEG8-FIT-PNA (5B, left) with fully matched RNA (mutant) and mis-match RNA (WT).
FIG. 6 depicts the increase in fluorescence for BRAF FIT-PNA substituted with cp. Fluorescence spectra of CLIP6-PEG8-cpFIT-PNA (1 μM) with fully matched RNA (mutant, (1.5 μM)) and mis-match RNA (WT, (1.5 μM)). A two-fold increase in fluorescence is obtained in comparison to the non-modified FIT-PNA (CLIP6-PEG8-FIT-PNA). An 18-fold enhancement in fluorescence is observed for CLIP6-PEG8-cpFIT-PNA in duplex form (with complementary RNA) in comparison to single strand.

complementary RNA [2] = assay: photophysical properties of duplex cpFIT-PNAs with complementary RNA (fluorescence spectrometry); assay type: physicochemical; conditions: for BR (brightness) / εmax / λmax, abs / Φ (quantum yield, QY): duplex with complementary RNA; for Φ (quantum yield, QY): relative to Cresyl Violet, 3 μM FIT-PNA in PBS pH 7; for I/I0: fluorescence enhancement, duplex with complementary RNA vs single strand; for enhancement upon duplex formation with complementary RNA: [FIT-PNA]=3 μM, [RNA]=4.5 μM
Experimental: (A) set 1 showing fluorescence of FIT-PNA:RNA duplex for FIT-PNAs 1-4, (B) set 2 showing fluorescence of FIT-PNA:RNA duplex for FIT-PNAs 5-7 and, (C) enhanced fluorescence of bis-cpFIT-PNAs (4 and 7) after RNA hybridization. [FIT-PNA]=[cpFIT-PNA]=3 μM, [RNA]=4.5 μM.
Fluorescence spectra were recorded by using a Jasco FT-6500 spectrometer. Measurements were carried out in fluorescence quartz cuvettes (10 mm) at a 3 μM concentration of FIT-PNA in a PBS buffered solution (100 mM NaCl, 10 mM NaH2PO4, pH 7). Quantum yields were determined relative to Cresyl Violet in PBS^3. PNAs were hybridized to complementary RNA using a 1:1.5 mixture of PNA:RNA at 37° C. for 1-2 hr. Samples were excited at 575 nm and emission spectra were recorded at 585-800 nm.

complementary RNA [3] = assay: Tm of RNA:PNA duplexes (duplex stability); assay type: binding; parameters: ΔTm: unit not given here; conditions: for Tm: RNA:PNA duplex; for ΔTm: vs unmodified control FIT-PNA of the set (1 or 5)
Experimental: In addition, the enhancement upon duplex formation with complementary RNA observed for these FIT-PNAs (4 and 7) was quite dramatic; 47-fold for FIT-PNA 7 and 46-fold for FIT-PNA 4 (FIG. 1B). The effect of cpPNA monomers to duplex stability was assessed by measuring Tm for all RNA:PNA duplexes (Table 2). The stabilizing effect was smaller for FIT-PNA in comparison to that reported for cpPNA. It is believed that this is due to the close proximity of the modified bases to the bulkier BisQ surrogate base in comparison to natural bases. For all measurements an additional transition at 60° C. was observed.

[4] = test system: 11-mer RNAs with all three possible mismatches; assay: mismatch sensitivity of cpFIT-PNAs, plate reader; assay type: binding
Experimental: Mismatch sensitivity was evaluated for single and doubly modified cpFIT-PNAs. Mismatch sensitivity for mono-substituted cpPNAs (cpFIT-PNAs 2, 3, and 6) are presented in FIGS. 3A-B. Double substituted cpFIT PNAs 4 and 7 were compared to FIT-PNA controls (1 and 5) and are presented in FIGS. 2A-B. 11-mer RNAs with all three possible mismatches were introduced either at 3′ (to the left of BisQ) or 5′ (to the right of BisQ) positions opposite to the nearby base to BisQ. One clear observation is that cpFIT-PNAs have significant selectivity for pyrimidine-pyrimidine mismatches (CC, TU, TC, CU where underlined base refers to PNA base) in comparison to FIT-PNA controls with the exception of the CU mismatch for cpFIT-PNA 4. For cpFIT-PNA 7, TC and TU mismatches are discriminated by a factor of 7.5 and 13.9-fold (vs. full matched RNA), respectively. This is around a 3 to 5-fold increase with respect to non-modified FIT-PNA 5.
(A) double cpFIT-PNA 4 compared to FIT-PNA 1 and (B) double cpFIT-PNA 7 compared to FIT-PNA 5. FIT-PNAs were annealed to all possible 11-mer RNAs and measured on a plate reader (λex=575 λnm, Em=619 nm, n=3). [FIT-PNA]=[cpFIT-PNA]=0.5 μM, [RNA]=0.75 μM.
FIGS. 3A-B provide mismatch sensitivity of single substituted cpFIT-PNAs. (A) cpFIT-PNA 2 and 3 and (B) cpFIT-PNA 6. FIT-PNAs (0.5 μM) were annealed to all possible 11-mer RNAs (0.75 μM) and measured on a plate reader (λex=575 nm, λem=619 nm, n=3).
(§1) Fluorescence end points were recorded by using a Cytation 3 plate reader. Measurements were carried out in Greiner 96 well black plates with flat bottom, at 0.5 μM concentration in a PBS buffered solution (100 mM NaCl, 10 mM NaH2PO4, pH 7). FIT-PNAs were hybridized to complementary RNA using a 1:1.5 mixture of PNA:RNA at 37° C. for 1-2 hr or by allowing overnight incubation at RT (for limit of detection (LOD) measurements). Samples were excited at 575 nm and measured at 615 nm.

complementary RNA [5] = assay: limit of detection (LOD) measurements, plate reader; conditions: overnight incubation at RT
Experimental: As used herein, the term “amount” made in reference to presence of an SOI in a sample, refers to a quantity of the SOI that is sufficient to interact with a conjugate of the invention to provide a measurable signal. This amount is in the low nM range as shown for FIT-PNA 7 (Table 2).
as §1

Row | Substance | BR (brightness) (complementary RNA [2]) | εmax (complementary RNA [2]) | λmax, abs (complementary RNA [2]) | Φ (quantum yield, QY) (complementary RNA [2]) | increase in fluorescence (CCAT1) | enhancement in fluorescence in duplex form (with complementary RNA) in comparison to single strand ([1]; 1.5 μM RNA) | increase in fluorescence in comparison to the non-modified FIT-PNA (CLIP6-PEG8-FIT-PNA) ([1]; 1.5 μM fully matched RNA (mutant)) | I/I0 (complementary RNA [2]) | Tm (complementary RNA [3]) | ΔTm (complementary RNA [3]) | enhancement upon duplex formation with complementary RNA (complementary RNA [2]) | increase in TC/TU mismatch discrimination with respect to non-modified FIT-PNA 5 [4] | TC mismatch discrimination vs. full matched RNA ([4]; 0.5 μM FIT-PNA, 0.75 μM RNA) | TU mismatch discrimination vs. full matched RNA ([4]; 0.5 μM FIT-PNA, 0.75 μM RNA) | amount of SOI sufficient to provide a measurable signal (complementary RNA [5])
1 | CCAACCT-BisQ-G^+TAAGTG-dK4 [G^+ modified CCAT1 FIT-PNA] | – | – | – | – | 7 fold | – | – | – | – | – | – | – | – | – | –
2 | CCAACCT-BisQ-cpG^+TAAGTG-dK4 [cpG^+ modified CCAT1 FIT-PNA] | – | – | – | – | 10 fold | – | – | – | – | – | – | – | – | – | –
3 | GATTcpT-BisQ-TCTGTAGCTAC-PEG8-CLIP6 [CLIP6-PEG8-cpFIT-PNA] | – | – | – | – | – | 18 fold | two-fold | – | – | – | – | – | – | – | –
4 | ^3′(4)KD-ATA-C-BisQ-TACAAC-^5′ [FIT-PNA 1, reference compound] | 15 mM⁻¹ cm⁻¹ and 15.0 mM⁻¹ cm⁻¹ | 83.2 mM⁻¹ cm⁻¹ | 588 nm | 0.18 | – | – | – | 12 | 50.2 °C | – | – | – | – | – | –
5 | ^3′(4)KD-ATA-C-BisQ-cpT-ACAAC-5′ [FIT-PNA 2] | 16.4 mM⁻¹ cm⁻¹ | 91.0 mM⁻¹ cm⁻¹ | 590 nm | 0.18 | – | – | – | 15 | 53.7 °C | (+3.5) | – | – | – | – | –

Continued, in another order:

Row | BR (brightness) (complementary RNA [2]) | εmax (complementary RNA [2]) | λmax, abs (complementary RNA [2]) | Φ (quantum yield, QY) (complementary RNA [2]) | Substance | increase in fluorescence (CCAT1) | enhancement in fluorescence in duplex form (with complementary RNA) in comparison to single strand ([1]; 1.5 μM RNA) | increase in fluorescence in comparison to the non-modified FIT-PNA (CLIP6-PEG8-FIT-PNA) ([1]; 1.5 μM fully matched RNA (mutant)) | I/I0 (complementary RNA [2]) | Tm (complementary RNA [3]) | ΔTm (complementary RNA [3]) | enhancement upon duplex formation with complementary RNA (complementary RNA [2]) | increase in TC/TU mismatch discrimination with respect to non-modified FIT-PNA 5 [4] | TC mismatch discrimination vs. full matched RNA ([4]; 0.5 μM FIT-PNA, 0.75 μM RNA) | TU mismatch discrimination vs. full matched RNA ([4]; 0.5 μM FIT-PNA, 0.75 μM RNA) | amount of SOI sufficient to provide a measurable signal (complementary RNA [5])
6 | 28.3 mM⁻¹ cm⁻¹ | 85.8 mM⁻¹ cm⁻¹ | 590 nm | 0.33 | ^3′(4)KD-ATA-cpC-BisQ-cpT-ACAAC-5′ [FIT-PNA 4] | – | – | – | 46 | 54.7 °C | (+4.5) | 46 fold | – | – | – | –
7 | 25.7 mM⁻¹ cm⁻¹ | 95.2 mM⁻¹ cm⁻¹ | 589 nm | 0.27 | ^3′(4)KD-ATA-cpT-BisQ-T-ACAAC-^5′ [FIT-PNA 3] | – | – | – | 12 | 53.7 °C | (+3.5) | – | – | – | – | –
8 | 16.5 mM⁻¹ cm⁻¹ | 82.3 mM⁻¹ cm⁻¹ | 587 nm | 0.20 | ^3′(4)KD-ATACA-T-BisQ-C-AAC-^5′ [FIT-PNA 5, reference compound] | – | – | – | 24 | 51.8 °C | – | – | – | – | – | –
9 | 29.1 mM⁻¹ cm⁻¹ | 85.7 mM⁻¹ cm⁻¹ | 586 nm | 0.34 | ^3′(4)KD-ATACA-cpT-BisQ-C-AAC-^5′ [FIT-PNA 6] | – | – | – | 46 | 53 °C | (+1.2) | – | – | – | – | –
10 | 35.3 mM⁻¹ cm⁻¹ | 90.6 mM⁻¹ cm⁻¹ | 586 nm | 0.39 | ^3′(4)KD-ATACA-cpT-BisQ-cpC-AAC-^5′ [FIT-PNA 7] | – | – | – | 47 | 52.9 °C | (+1.1) | 47 fold | 3 to 5 fold | 7.5 fold | 13.9 fold | low nM range
